ChEMBL document CHEMBL3430912, “GSK Tres Cantos Anti-Kinetoplastid Screening (TCAKS) Data”

Assays:
[1] = system: Trypanosoma cruzi; test: (§1) GSK_TCAKS: pIC50 Trypanosoma cruzi Imaging: Infected Cells. […] Cells were then washed once with PBS before infection. T. cruzi trypomastigotes, collected at days 5 to 8 after infection from LLC-MK2 parasite infected cultures, were allowed to swim out for 4h at 37C from a centrifuged pellet (2,500 rpm/10 min/room temperature). Trypomastigotes were then collected and counted in a CASY Cell Counter. Trypomastigotes, in supplemented DMEM, were added to H9c2 cultures in a multiplicity of infection of 1 and incubated for 18 h. Cells were washed once with PBS before incubation of the infected H9c2 monolayer with trypsin (Life-Technologies) to detach cells from the flask. Cells were counted in a CASY Cell Counter using a 150 um capillary and their density set at 5 * 10^4 cells per mL in supplemented assay DMEM. Infected H9c2 were dispensed into 384-well poly-lysine coated assay plates at 50uL per well using a Multidrop Combi dispenser. After seeding them, the plates were incubated at 37C, 5% CO2 for 72h. Cultures were then fixed and stained by addition of 50 uL of a solution containing 8% formaldehyde and 4 uM DRAQ5 DNA dye (BioStatus, UK) per well. […] Five images were collected per well for reliable statistical analysis. Automated image analysis was performed with a script developed on Acapella High Content Imaging and Analysis Software (PerkinElmer). Output: percentage of infected cells per well as a second infection marker.; assay type: functional, organism-based, Rattus norvegicus; conditions: H9c2, 4 h
[2] = system: Trypanosoma cruzi; test: GSK_TCAKS: pIC50 Trypanosoma cruzi Imaging: Amastigotes/Cell. […] Cells were then washed once with PBS before infection. T. cruzi trypomastigotes, collected at days 5 to 8 after infection from LLC-MK2 parasite infected cultures, were allowed to swim out for 4h at 37C from a centrifuged pellet (2,500 rpm/10 min/room temperature). Trypomastigotes were then collected and counted in a CASY Cell Counter. Trypomastigotes, in supplemented DMEM, were added to H9c2 cultures in a multiplicity of infection of 1 and incubated for 18 h. Cells were washed once with PBS before incubation of the infected H9c2 monolayer with trypsin (Life-Technologies) to detach cells from the flask. Cells were counted in a CASY Cell Counter using a 150 um capillary and their density set at 5 * 10^4 cells per mL in supplemented assay DMEM. Infected H9c2 were dispensed into 384-well poly-lysine coated assay plates at 50uL per well using a Multidrop Combi dispenser. After seeding them, the plates were incubated at 37C, 5% CO2 for 72h. Cultures were then fixed and stained by addition of 50 uL of a solution containing 8% formaldehyde and 4 uM DRAQ5 DNA dye (BioStatus, UK) per well. […] Five images were collected per well for reliable statistical analysis. Automated image analysis was performed with a script developed on Acapella High Content Imaging and Analysis Software (PerkinElmer). Output: number of amastigotes per cell as infection level measurement.; assay type: functional, organism-based, Rattus norvegicus; conditions: H9c2, 4 h
[3] = system: Leishmania donovani; test: GSK_TCAKS: pIC50 Leishmania donovani viability assay using fluorescence intensity. Assay plates (1536-well) were prepared by adding 30nL per well of compound. For single shot assay, the final compound concentration was 5uM. […] Briefly, eGFP LdBOB axenic amastigotes were harvested, fixed and counted in a CASY cell counter (Roche-Applied Science). A final concentration of 1.5 * 10^5 cells per well were prepared in amastigote media containing 500 U/mL penicillin/streptomycin (Invitrogen) and 6uL was dispensed to each experimental well using a Multidrop Combi dispenser (Thermo Scientific). 6uL of assay media was dispensed to control columns used as reference for 100% compound response. Following incubation for 72 h at 37C, 5% CO2, 2 uL of resazurin was added to each well at a final concentration of 0.5 mM in phosphate buffered saline (PBS) with IGEPAL (Sigma-Aldrich), 0.05% (v/v).; assay type: functional, organism-based
[4] = system: Leishmania donovani; test: (§2) GSK_TCAKS: pIC50 Leishmania donovani Imaging: THP-1 Host Macrophages. Assay plates (384-well) were prepared by adding 250nL of compound to each well. For single shot assay, the final compound concentration was 5 uM. […] Automated image analysis was performed with a script developed on Acapella High Content Imaging and Analysis Software (PerkinElmer). Output: THP-1 cell count were reported for each well.; assay type: functional, organism-based, Homo sapiens
[5] = target: Sterol 14-alpha demethylase (Trypanosoma cruzi (strain CL Brener), UniProt Q7Z1V1); test: GSK_TCAKS: pIC50 CYP51 from Trypanosoma cruzi.; assay type: functional
Chain of Sterol 14-alpha demethylase (Q7Z1V1 whole entry): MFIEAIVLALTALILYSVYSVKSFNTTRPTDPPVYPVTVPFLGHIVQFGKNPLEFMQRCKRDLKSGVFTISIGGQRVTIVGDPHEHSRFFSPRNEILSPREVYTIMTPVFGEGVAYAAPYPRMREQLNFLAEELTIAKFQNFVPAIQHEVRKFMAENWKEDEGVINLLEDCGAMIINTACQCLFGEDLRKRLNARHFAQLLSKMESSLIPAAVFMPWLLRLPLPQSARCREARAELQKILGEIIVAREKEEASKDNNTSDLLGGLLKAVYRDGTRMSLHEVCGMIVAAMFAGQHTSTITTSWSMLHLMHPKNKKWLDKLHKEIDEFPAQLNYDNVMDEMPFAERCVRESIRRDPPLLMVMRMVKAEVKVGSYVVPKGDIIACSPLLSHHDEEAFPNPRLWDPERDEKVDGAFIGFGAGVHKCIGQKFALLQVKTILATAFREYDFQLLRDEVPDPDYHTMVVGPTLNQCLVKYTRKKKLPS

[6] = system: Trypanosoma cruzi; test: GSK_TCAKS: pIC50 Trypanosoma cruzi viability assay using beta-GAL activity. This assay was run at single shot at 5uM compound concentration per well. The biological reagents consisted of NIH-3T3 host cells and trypomastigotes parasitic cells; both cell types were set to a 3.3 * 10^5 cells/mL dilution in assay DMEM by means of a CASY cell counter device using a 60um capillary. 6 uL of the mixture were dispensed per well (about 1 * 10^3 host-cells and 1 * 10^3 parasites) with a Multidrop Combi dispenser. […] In all wells, the percentage of DMSO never exceeded 0.5%. Plates incubated for four days at 37C, 5% CO2. The substrate used for the assay fluorescence intensity (FLINT) readout was resorufin-beta-D-galactopiranoside (Sigma-Aldrich) at 5uM per well. It was diluted in PBS supplemented with the soft detergent Igepal (Fluka).; assay type: functional, organism-based, Mus musculus; conditions: Tulahuen, NIH3T3
[7] = GSK_TCAKS: pIC50 HepG2 human cell line viability assay using luminiscence. […] Seeding density was checked to ensure that new mono-layers were not more than 50% confluent at the time of harvesting. Cell suspension was added to 500 mL of the same medium at a final density of 1.2 * 10^5 cells/mL. This cell suspension was dispensed (25 uL, 3000 cells per well) into 384-well clear-bottom plates using a Multidrop Combi dispenser. Prior to addition of the cell suspension, the screening compounds (250 nL) were pre-dispensed into the plates with an Echo liquid handler. Plates were incubated for 48 h at 37C, 5% CO2. After incubation, plates equilibrated at room temperature for 30 min before proceeding to develop the luminescent signal. The signal developer, CellTiter-Glo Reagent, was allowed to equilibrate at room temperature for 30 min and added to the plates (25uL per well) using a Multidrop Combi dispenser. Plates were left for 10 min at room temperature for stabilization and then read using a ViewLux.; assay type: toxicity, cell-based
[8] = system: Leishmania donovani; test: as §2, with “Amastigotes/Macrophages.” for “THP-1 Host Macrophages.”, “Average number of amastigotes per macrophage” for “THP-1”, “cell” for “cell count”; assay type: functional, organism-based, Homo sapiens; conditions: THP-1
[9] = system: NIH3T3; test: GSK_TCAKS: pIC50 NIH 3T3 cell line viability assay using luminiscence. Tissue culture surface treated assay plates (1536-well) were used. […] The 100% cells survival control was determined exposing the host-cells to a 0.5% DMSO concentration, whereas the 100% toxicity control was achieved by seeding the cells in presence of Amphotericin B at 50uM. Plates were incubated for four days at 37C, 5% CO2. The assay readout was developed by addition of 5uL of CellTiter-Glo Reagent following the manufacturer's instructions. Luminiscence was measured using a ViewLux.; assay type: functional, cell-based; conditions: Mus musculus, NIH3T3, 96 h
[10] = system: Trypanosoma brucei brucei; test: GSK_TCAKS: pIC50 Trypanosoma brucei viability assay using luminiscence. Assay plates (1536-well) were prepared. T. brucei cultures were harvested and counted in a CASY cell counter. A parasite suspension was prepared at a final concentration of 5 * 10^4 cells/mL in complete HMI9 medium and 6uL was dispensed to all wells containing compounds using a Multidrop Combi dispenser. 6uL of HMI9 media with 0.4% DMSO were dispensed to control columns. Plates were incubated for 24 h at 37C, 5% CO2 then tempered for 10 min at room temperature. ATP content was quantified by adding 4 uL of CellTiter-Glo Reagent (Promega) according to the manufacturer's instructions. Luminescence was measured using a ViewLux.; assay type: functional, organism-based; conditions: Lister 427, CASY
[11] = system: Leishmania donovani; test: as §2, with “Infected” for “THP-1 Host”, “Percent of infected macrophage cells” for “THP-1 cell count”; assay type: functional, organism-based, Homo sapiens; conditions: THP-1
[12] = system: Trypanosoma brucei brucei; test: GSK_TCAKS: pIC50 Trypanosoma brucei viability assay using fluorescence intensity. Assay plates (1536-well) were prepared by dispensing 25nL of compound solution per well using an Echo acoustic dispenser (Labcyte).; assay type: functional, organism-based; conditions: Lister 427, 2 h
[13] = system: Trypanosoma cruzi; test: as §1, with “H2C9” for “Trypanosoma cruzi”, “H9c2 Host Cardiomyocytes.” for “Infected Cells.”, “Number” for “percentage”, “H9c2 Host Cardiomyocytes nuclei to determine drug-related cytotoxicity.” for “infected cells per well as a second infection marker.”; assay type: functional, organism-based, Rattus norvegicus; conditions: H9c2, 4 h

Row | SMILES | IC50 [1] [µM] | IC50 [2] [µM] | IC50 [3] [µM] | IC50 [4] [µM] | IC50 [5] [µM] | IC50 [6] [µM] | IC50 at 48 h [7] [µM] | IC50 [8] [µM] | IC50 [9] [µM] | IC50 [10] [µM] | IC50 [11] [µM] | IC50 [12] [µM] | IC50 [13] [µM]
1 | CS(=O)(=O)c1ccc(CC(=O)Nc2nc(-c3ccc(Cl)s3)cs2)cc1 | 0.316 | 0.398 | > 50.1 | 15.8 | > 100 | 0.398 | > 100 | > 50.1 | > 50.1 | > 39.8 | > 50.1 | 10 | 15.8
2 | COc1ccc(-c2nc3ccncc3c(=O)n2CCOc2ccccc2)cc1 | 0.398 | 0.398 | 39.8 | > 50.1 | 0.0398 | 0.631 | > 100 | > 50.1 | 31.6 | 31.6 | > 50.1 | 25.1 | > 50.1
3 | Cc1cccc(N2CCCN(Cc3c[nH]c4ccccc34)CC2)n1 | 0.398 | 0.316 | > 50.1 | 10 | > 100 | 0.316 | 12.6 | 10 | 25.1 | 12.6 | 10 | 12.6 | 2.51
4 | O=C(CCCn1cnc([N+](=O)[O-])n1)Nc1cccc(Cl)c1 | 0.501 | 0.158 | > 50.1 | > 50.1 | 50.1 | 0.2 | > 100 | > 50.1 | > 50.1 | > 39.8 | > 50.1 | 5.01 | > 50.1
5 | CC1=C(C(=O)Nc2ccc(Cl)cc2)C(c2ccncc2)n2ncc(C(=O)Nc3ccccc3)c2N1 (centres undefined) | 0.02 | 0.02 | 0.126 | 12.6 | 0.126 | 0.02 | 79.4 | > 50.1 | 31.6 | > 39.8 | > 50.1 | 3.16 | > 50.1
6 | O=C(NCCc1cccnc1)c1ccc(-c2ccccc2F)o1 | 0.2 | 0.2 | 20 | > 50.1 | 0.0631 | 0.112 | > 100 | > 50.1 | 39.8 | > 39.8 | > 50.1 | 31.6 | > 50.1
7 | Cc1ccc2c(c1)-c1onc(C(=O)N3CCCCC3c3cccnc3)c1CO2 (centres undefined) | 0.126 | 0.126 | 31.6 | 39.8 | 0.1 | 0.1 | 50.1 | 39.8 | 20 | > 39.8 | > 50.1 | 39.8 | > 50.1
8 | COc1ccc(-c2cc(C)no2)cc1S(=O)(=O)Nc1ccc(F)c(Cl)c1 | 3.16 | 3.98 | 25.1 | 31.6 | > 100 | 1.58 | 79.4 | 20 | 25.1 | 25.1 | 25.1 | 15.8 | 50.1
